≈ marks a conversion by molar mass, not a printed value.
Tests used:
[1] = tested on: T. b. gambiense clinical isolates; assay: In vitro trypanocidal assay, clinical isolates; type: cell-based; conditions: Trypanosoma brucei, six recent clinical isolates, data not shown
Experimental: Parasites were cultured with or without the test article at a concentration of 3×10^4/mL in Minimal Essential Medium, according to Baltz et al., with the following modifications: 0.2 mM 2-mercaptoethanol, 1 mM Na-pyruvate, 0.5 mM hypoxanthine and 15% heat inactivated horse serum at 37°C in 5% CO2 in 96-well microtitre plates for 72 h. 10 µL of Alamar Blue was added for the final 3 h to determine viability. The assay was assessed by reading the fluorescence in each well at an excitation wavelength of 536 nm and at an emission wavelength of 588 nm. The IC50 values were calculated from the sigmoidal inhibition curves. For cytotoxicity, 4×10^4/mL L-6 rat skeletal myoblast cells were used, and incubations and assessments carried out as above.

[2] = tested on: T. b. brucei GVR35; assay: Chronic (stage 2) infection mouse model; type: in vivo
Experimental: (§1) Female NMRI mice were infected via intraperitoneal injection with bloodstream forms of T. b. rhodesiense STIB900 or T. b. gambiense 130R and treated with test drugs daily for 4 consecutive days, starting on day 3 or 7 after infection, respectively, or with bloodstream forms of T. b brucei GVR35 and treated daily from day 21 after infection for 5 days. Parasitemia was evaluated by tail blood examination and surviving, aparasitaemic mice at 60, 90, or 180 days, respectively, were considered cured.

[3] = tested on: T. b. rhodesiense STIB900; assay: Acute infection mouse model; type: in vivo
Experimental: as §1

[4] = tested on: T. b. gambiense 130R; assay: Acute infection mouse model; type: in vivo; conditions: 100 mg/kg×4 days po
Experimental: as §1

[5] = tested on: MDR1 (human, transfected); assay: in vitro; conditions: dog, MDCK-MDR1, pH 7.4
Experimental: (§2) Caco-2 [36] or MDR1-MDCK (Madin Darby canine kidney cells transfected with the human multidrug resistance MDR1 gene) cell monolayers were grown to confluence on collagen-coated, microporous, polycarbonate membranes in 12-well microtitre plates. The buffer for the donor chamber was Hanks balanced salt solution with 10 mM HEPES and 15 mM glucose at pH 7.4. The buffer in the receiver chamber contained the same with the addition of 1% bovine serum albumin (BSA). The test article was added at 5 µM in the assay buffer. […] After 2 h, duplicate aliquots were taken from the donor and receiver chambers and assayed via LC/MS. The apparent permeability and recovery were calculated using standard methods.
(§3) The objective of this study was to determine the bi-directional MDR1-MDCK permeability and efflux limited absor ption potential of thr ee test compounds. […]
(§4) 4. Th e buff er in th e r ecei ver cha m ber a l so con t a in ed 1% Bovi n e Ser um Al bumin ( BSA) . Th e test compound dosing concentrations were 5 µM in th e a ssay bu f fer . […] After two hours, a l iquot s wer e t a ken fr om th e r ecei ver an d don or cha m ber s. E a ch det erm ina ti on wa s per for m ed in dupl i cat e. Th e Lucifer Yellow flux was also measur ed for each mon olayer after bein g subjected to th e test compoun ds to en sur e n o damage was in flicted to th e cell mon olayer s durin g th e flux per iod. All samples wer e assayed by LC/MS/MS usin g electrospray ionization. Analytical conditions are outlined in Attachment I. The apparent permeability, Papp, and per cen t r ecover y wer e calculated as follows: […]
(§5) dCr /dt is th e slope of th e cumulative con cen tration in th e r eceiver compartment ver sus time in µM s -1. […]

[6] = tested on: human MDR1; assay: in vitro; conditions: dog, MDCK-MDR1, pH 7.4
Experimental: as §2, §3, §4, §5

[7] = in vitro; conditions: dog
Experimental: as §2, §3, §4, §5

[8] = tested on: MDR1-MDCK cell monolayers; assay: in vitro; conditions: MDCK-MDR1
Experimental: as §2, §3, §4, §5

[9] = Stability of drug substance and dosing suspensions; type: physicochemical; conditions: stability data to date
Experimental: page 4: […] Pharmacokinetic Report for the study No. 0403-2007 4. METHODS […] […] 4.2. […] The suspensions were stored at +4°C. […] Three samples were analyzed for each suspension. 4.3. […] Blood was taken at […] 4.4.

In the case of CSc1ccc(OCc2ncc([N+](=O)[O-])n2C)cc1 [Fexinidazole, 1-methyl-2-((p-(methylthio)phenoxy)methyl)-5-nitroimidazole], the IC50 [1] is reported as 0.3 to 0.93 µg/mL (≈ 1.07 to 3.33 µM), the Cured/infected ([2]; 50 mg/kg×5 days po) is reported as 0/8 and the Mean relapse time ([2]; 50 mg/kg×5 days po) is reported as 41.3 days. The cure ([2]; 100 mg/kg twice per day for 5 days po, groups of 5 mice, two independent experiments) was 100%, the Cured/infected ([2]; 100 mg/kg×5 days po) was 2/8 and the Mean relapse time ([2]; 100 mg/kg×5 days po) was >82.1 days. The Cured/infected ([2]; 200 mg/kg×5 days po) was 7/8, the Mean relapse time ([2]; 200 mg/kg×5 days po) was >163.8 days and the Cured/infected ([3]; 25 mg/kg×4 days po) was 0/4. The Mean relapse time ([3]; 25 mg/kg×4 days po) was 12 days, the efficacy ([3]; 50 mg/kg twice a day for 4 days po, T. b. rhodesiense and T. b. gambiense acute models) was “effective in curing” and the Cured/infected ([3]; 50 mg/kg×4 days po) was 1/4. For the same compound, the Mean relapse time ([3]; 50 mg/kg×4 days po) was >27 days, the Cured/infected ([3]; 100 mg/kg×4 days po) was 4/4 and the Mean relapse time ([3]; 100 mg/kg×4 days po) was >60 days. The efficacy ([3]; single high dose, acute model, data not shown) was “partially curative”, the Cured/infected [4] was 3/3 and the Mean relapse time [4] was >90 days. It also gave an efflux ratio at 2 h, 5 µM [5] of 0.9, a Papp B→A at 2 h, 5 µM [6] of 55.1 ×10⁻⁶ cm/s and a Papp A→B at 2 h, 5 µM ([7]; MDCK-MDR1, pH 7.4) of 60.6 ×10⁻⁶ cm/s. For the same compound, the recovery at 2 h, 5 µM ([7]; MDCK-MDR1, pH 7.4, Percent Recovery A→B) was 71%, the recovery at 2 h, 5 µM ([7]; MDCK-MDR1, pH 7.4, Percent Recovery B→A) was 77% and the “Papp B-A / Papp A-B Ratio” value [8] was “no significant efflux”. For the same compound, the stability [9] was “very stable”.

Source: paper PMC3006138, “Fexinidazole – A New Oral Nitroimidazole Drug Candidate Entering Clinical Development for the Treatment of Sleeping Sickness” (PLoS Neglected Tropical Diseases, 2010)
